Laboratory results: PMC4838876, “Multivalent display of minimal Clostridium difficile glycan epitopes mimics antigenic properties of larger glycans” (Nature Communications, 2016)

What was measured:
Design in all cases: species or system mouse
mAb 2C5 (anti-PS-I IgG1) = test: Kinetic SPR of glycans binding to captured mAb 2C5; settings: for off-rate: mAb 2C5; for Kd: mAb 2C5, PBS, 25 °C
Description: (§1) Kinetic SPR experiments were performed to determine the binding strengths of the mAbs to PS-I glycans expressed as dissociation constants (KD)[8] (Fig. 5a). […] Overall, the SPR measurements (summarized in Table 1) confirmed results obtained by glycan microarray presented above.
(§2) Figure 5 KD values of anti-PS-I mAbs binding to 1 and 3 inferred by SPR. (a) mAbs were captured with an anti-mouse IgG antibody immobilized on the SPR sensor surface. Glycan antigens were passed over the surface to monitor changes in the response unit signals. (b,c) Representative sensorgrams showing reference-subtracted binding signals to 1 (b) and 3 (c). KD values were calculated by fitting the curves to a 1:1 Langmuir binding model (black overlaid curves) or with a steady-state affinity model (response units versus concentration plots). Indicated KD values are mean±s.e.m. of n=3 or mean with minimum and maximum values in parentheses of n=2 independent experiments. See Supplementary Figs 3–5 for details.
Binding analyses were carried out on a Biacore T100 instrument (GE Healthcare). CM5 sensor chips were functionalized with about 10,000 RUs of α-mouse IgG capture antibody, using the Mouse Antibody Capture Kit and the Amine Coupling Kit (GE Healthcare) according to the manufacturer's recommendations. A blank-immobilized flow cell was used as reference, to compensate for nonspecific binding of antibodies or oligosaccharides to the sensor chip surface. Kinetic measurements were performed with the Biacore T100 Control software using the ‘Kinetics' function. PBS was used as running buffer and all measurements were performed at 25 °C and a flow rate of 30 μl min^−1. About 500 RUs of mAbs were captured at a concentration of 50 μg ml^−1 diluted in PBS and oligosaccharides or OAAs (in PBS) at the indicated concentrations were passed through, using the standard parameters for association and dissociation times unless mentioned otherwise. Flow cells were regenerated with 10 mM glycine-HCl pH 1.7 for 30 s. Kinetic evaluation of binding responses was performed with the Biacore T100 Evaluation software, using reference-subtracted sensorgrams. Two different kinetic models, a 1:1 binding Langmuir model and a two-state reaction model, which assumes a conformational change in the antibody–analyte complex, were used to fit the data. The fitting quality was evaluated by investigating respective residual plots, χ^2 and s.e. values for on- and off-rates. Both models yielded similar good fittings. We chose the 1:1 binding model over the two-state reaction model to calculate on- and off-rates, as well as KD values, as this model makes fewer assumptions. When on-rates and/or off-rates were outside of the measurable ranges of the instrument, the steady-state affinity model was used instead to determine KD values. The 1:1 binding model was generally preferred over the steady-state affinity model in cases where both could be applied. In these cases, the two models yielded roughly similar KD values. Thermodynamic parameters were inferred by using the ‘Thermodynamics' function of the Biacore T100 Control software with the same experimental set-up described above. Temperatures from 13 to 37 °C were chosen. Values for ΔG, ΔH and ΔS were inferred by van't Hoff analysis. IM analysis was carried out by Ridgeview Diagnostics AB, Uppsala, Sweden.
Supplementary Figure 3 | KD values of mAb 2C5 to PS‐I oligosaccharide antigens inferred by SPR. […]

[1] = biological target: mAb 10A1 (anti-PS-I IgG1); test: Kinetic SPR of glycans binding to captured mAb 10A1; settings: mAb 10A1, PBS, 25 °C, mean (min;max) n=2
Description: as §1, §2
Binding analyses were carried out on a Biacore T100 instrument (GE Healthcare). […] The fitting quality was evaluated by investigating respective residual plots, χ^2 and s.e. values for on- and off-rates. […]

[2] = biological target: mAb 10D6 (anti-PS-I IgG1); test: Kinetic SPR of glycans binding to captured mAb 10D6; settings: mAb 10D6, PBS, 25 °C, mean±s.e.m. n=3 or mean (min;max) n=2
Description: as §1
Binding analyses were carried out on a Biacore T100 instrument (GE Healthcare). CM5 sensor chips were functionalized with about 10,000 RUs of α-mouse IgG capture antibody, using the Mouse Antibody Capture Kit and the Amine Coupling Kit (GE Healthcare) according to the manufacturer's recommendations. A blank-immobilized flow cell was used as reference, to compensate for nonspecific binding of antibodies or oligosaccharides to the sensor chip surface. Kinetic measurements were performed with the Biacore T100 Control software using the ‘Kinetics' function. PBS was used as running buffer and all measurements were performed at 25 °C and a flow rate of 30 μl min^−1. About 500 RUs of mAbs were captured at a concentration of 50 μg ml^−1 diluted in PBS and oligosaccharides or OAAs (in PBS) at the indicated concentrations were passed through, using the standard parameters for association and dissociation times unless mentioned otherwise. […] The fitting quality was evaluated by investigating respective residual plots, χ^2 and s.e. values for on- and off-rates. […]
All sensorgrams were recorded on a Biacore T100 instrument (GE […]

[3] = mean±s.e.m. n=3 or mean (min;max) n=2

C[C@@H]1O[C@@H](O[C@@H]2[C@@H](O)[C@H](O[C@H]3[C@H](O[C@@H]4O[C@@H](C)[C@H](O)[C@@H](O)[C@H]4O)[C@@H](O)[C@@H](O[C@H]4[C@@H](OCCCCCN)O[C@H](CO)[C@@H](O)[C@@H]4O)O[C@@H]3CO)O[C@H](CO)[C@H]2O)[C@H](O)[C@H](O)[C@H]1O [Compound 1]
off-rate (mAb 2C5 (anti-PS-I IgG1)): 0.0019 s⁻¹ | Kd (mAb 2C5 (anti-PS-I IgG1); [3]): 0.163 ± 0.023 µM | off-rate koff (mAb 2C5 (anti-PS-I IgG1); mAb 2C5, dissociation model fit, mean±s.e.m. n=3 or mean (min;max) n=2): 1.6±0.1 × 10^-3 s^-1 | Kd [1]: 0.245 µM | Kd [2]: 0.169 µM

C[C@@H]1O[C@@H](O[C@@H]2[C@@H](O)[C@H](OCCCCCN)O[C@H](CO)[C@H]2O)[C@H](O)[C@H](O)[C@H]1O [Compound 3, Rha-(1→3)-Glc]
off-rate (mAb 2C5 (anti-PS-I IgG1)): 0.0016 s⁻¹ | Kd (mAb 2C5 (anti-PS-I IgG1); [3]): 18 µM | Kd [1]: 5.9 µM | Kd [2]: 37.5 ± 0.4 µM
